Like-named read-outs stand apart in the source and are kept apart here.
Assays:
Cl^- r = biological target: T1, Cl^- r (Homo sapiens, UniProt P00736); experiment: Inactivation rate of complement protein C1r; assay type: biochemical; conditions: Table II; pH 7.5, 25° C; [I] 4.6 to 470 μM; read-out: kobs/[I]
T1 construct: Cl^- r^f
T1 sequence (P00736 464-705 limits assumed): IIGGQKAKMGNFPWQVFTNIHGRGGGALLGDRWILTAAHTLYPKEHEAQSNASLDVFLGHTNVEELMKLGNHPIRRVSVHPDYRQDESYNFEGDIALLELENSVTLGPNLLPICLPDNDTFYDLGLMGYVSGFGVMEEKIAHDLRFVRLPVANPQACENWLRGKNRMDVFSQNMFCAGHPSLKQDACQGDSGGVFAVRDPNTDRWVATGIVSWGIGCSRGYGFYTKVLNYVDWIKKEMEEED
T1 sequence (P00736 18-463 partner limits assumed): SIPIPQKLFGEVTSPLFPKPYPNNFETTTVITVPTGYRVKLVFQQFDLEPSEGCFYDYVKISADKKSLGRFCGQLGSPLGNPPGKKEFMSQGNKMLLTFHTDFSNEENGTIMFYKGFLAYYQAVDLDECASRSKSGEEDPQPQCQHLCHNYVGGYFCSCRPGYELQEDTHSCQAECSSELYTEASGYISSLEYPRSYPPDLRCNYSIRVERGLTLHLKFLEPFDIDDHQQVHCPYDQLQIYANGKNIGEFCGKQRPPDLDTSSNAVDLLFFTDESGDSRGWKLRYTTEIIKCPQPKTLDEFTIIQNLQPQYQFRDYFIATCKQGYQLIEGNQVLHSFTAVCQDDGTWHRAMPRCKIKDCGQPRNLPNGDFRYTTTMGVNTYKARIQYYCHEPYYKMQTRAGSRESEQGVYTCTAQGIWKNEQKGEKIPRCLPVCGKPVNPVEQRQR
Description: (§1) Inactivation rates of serine proteases by substituted isocoumarins were measured by the incubation method. An aliquot of inhibitor (25 or 50 μl) in Me2 SO was added to a buffered enzyme solution (0.01-2.3 μM) to initiate the inactivation. Aliquots (50 μl) were withdrawn at various intervals and the residual enzymatic activity was measured. Me2 SO concentration in the reaction mixture was 8-12% (v/v). 0.1 Hepes, 0.01M CaCl2, pH 7.5 buffer was utilized for trypsin and coagulation enzymes. 0.1M Hepes, 0.5M NaCl, pH 7.5 was utilized for other serine proteases. The inhibitor concentrations are shown in all the tables. Peptide thioesters or peptide nitroanilides with appropriate sequence were used as substrates for various serine proteases. All peptide thioester hydrolysis rates were measured with assay mixtures containing 4,4'-dithiodipyridine (ε324 =19800M^-1 cm^-1; Grasetti & Murray, Arch. Biochem. Biophys. 119, pp 41-49 (1967)). Peptide 4-nitroanilide nitroanilide hydrolysis was measured at 410 nm (ε410 =8800M^-1 cm^-1; Erlanger et al., Arch. Biochem. Biophys. 95, pp 271-278 (1961)). First order inactivation rate constant (kobs) were obtained from plots of ln (vt /vo) vs time, and the correlation coefficients were greater than 0.98.
(§2) ^a Conditions were 0.1M Hepes, 0.5M NaCl, pH 7.5, 8-10% Me2 SO
(§3) and 25° C. Inactivation rates were measured by incubation method.
(§4) Enzyme concentrations were as follows: protein D, 1-9 μM; C2, 0.7-1
(§5) μM; B, 1.8 μM; Bb, 0.3-0.8 μM; Cl^- s, 0.07 μM; Cl^-

bovine thrombin = biological target: T2, bovine thrombin (Bos taurus, UniProt P00735); experiment: Inactivation rate of bovine thrombin; assay type: biochemical; conditions: read-out: kobs/[I]
T2 construct: bovine thrombin
In short: (§6)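 Incubation method: isocoumarin inhibitor in Me2SO added to enzyme (0.01-2.3 μM) in 0.1M Hepes, 0.01M CaCl2, pH 7.5, 8-12% Me2SO, 25° C; aliquots withdrawn over time for residual activity against peptide thioester or 4-nitroanilide substrates. kobs from ln(vt/vo) vs time.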

human plasma kallikrein = biological target: T3, human plasma kallikrein (Homo sapiens, UniProt P03952); experiment: Inactivation rate of human plasma kallikrein; assay type: biochemical; conditions: Table I, read-out: kobs/[I]
T3 construct: human plasma kallikrein; from tissue; host or cells: human plasma (from the name)
Description: as §1
^a Conditions were as 0.1M Hepes, 0.01M CaCl2, pH 7.5 and 8-12%
Me2 SO and 25° C. Rate constants were measured by incubation
method unless otherwise noted. An aliquot of inhibitor was added to an
enzyme solution and aliquots removed with time and assayed for remaining
enzymatic activity. Firstorder rate constants, kobs were obtained
from the plots of ln(vt /vo) versus time.

bovine trypsin = biological target: T4, bovine trypsin (Bos taurus, UniProt P00760); experiment: Inactivation rate of bovine trypsin; assay type: biochemical; conditions: read-out: kobs/[I]
T4 sequence (P00760 24-246): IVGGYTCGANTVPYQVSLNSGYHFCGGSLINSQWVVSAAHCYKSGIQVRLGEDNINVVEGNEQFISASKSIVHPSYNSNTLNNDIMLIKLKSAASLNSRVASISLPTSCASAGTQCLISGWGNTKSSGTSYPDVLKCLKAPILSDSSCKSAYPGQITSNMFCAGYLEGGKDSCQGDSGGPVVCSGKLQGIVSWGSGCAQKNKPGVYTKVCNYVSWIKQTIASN
In short: as §6

Bb = biological target: T5, Bb (Homo sapiens, UniProt P00751); experiment: Inactivation rate of complement fragment Bb; assay type: biochemical; conditions: Table II; pH 7.5, 25° C; [I] 0.05 to 1.25 mM; read-out: kobs/[I]
T5 construct: active fragments C2a, Bb
Description: as §1, §2, §3, §4, §5

cathepsin G = biological target: T6, cathepsin G (Homo sapiens, UniProt P08311); experiment: Inactivation of cathepsin G; assay type: biochemical; conditions: for kinact/KI: pH 7.5, 25° C, read-out: kobs/[I]
T6 construct: from tissue; host or cells: human leukocytes
T6 sequence (P08311 21-255): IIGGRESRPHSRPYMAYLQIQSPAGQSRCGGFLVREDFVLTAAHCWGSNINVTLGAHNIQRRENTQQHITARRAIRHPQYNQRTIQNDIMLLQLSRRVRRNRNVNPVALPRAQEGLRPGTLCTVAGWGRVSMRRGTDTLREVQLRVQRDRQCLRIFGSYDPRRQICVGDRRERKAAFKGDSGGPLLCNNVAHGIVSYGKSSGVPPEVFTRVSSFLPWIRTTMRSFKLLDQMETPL

[1] = Spontaneous hydrolysis in Hepes buffer; assay type: physicochemical; conditions: 0.1 Hepes, 0.5M NaCl, pH 7.5, 9% Me2SO, 25° C; for half-life: hepes buffer, read-out: t1/2 for spontaneous hydrolysis
Description: ^a Conditions were 0.1 Hepes, 0.5M NaCl, pH 7.5 and 9% Me2 SO at
25° C. Spontaneous hydrolysis rates were measured
spectrophotometrically by monitoring the decrease in absorbance due to th
isocoumarin ring system (wavelength 335-380 nm) using the firstorder rate

[2] = Spontaneous hydrolysis in human plasma; assay type: in vitro ADME; conditions: for half-life: human plasma, read-out: t1/2 for spontaneous hydrolysis
human factor Xa = biological target: T7, human factor Xa (Homo sapiens, UniProt P00742); experiment: Inactivation rate of human factor Xa; assay type: biochemical; conditions: pH 7.5, 25° C, read-out: kobs/[I]
T7 construct: human factor Xa
In short: as §6

[3] = Table I, pH 7.5, 25° C, [I] 0.3 to 400 μM
[4] = pH 7.5, based on residual activity at 0.2 min
[5] = Table I, pH 7.5, 25° C, [I] 1 to 12 μM
[6] = pH 7.5, 25° C, [I] 3 to 330 μM (footnote g)
[7] = pH 7.5, Table I, progress curve method
[8] = pH 7.5, Table I, same concentration of enzyme and inhibitor

T7 sequence (P00742 235-488 limits assumed): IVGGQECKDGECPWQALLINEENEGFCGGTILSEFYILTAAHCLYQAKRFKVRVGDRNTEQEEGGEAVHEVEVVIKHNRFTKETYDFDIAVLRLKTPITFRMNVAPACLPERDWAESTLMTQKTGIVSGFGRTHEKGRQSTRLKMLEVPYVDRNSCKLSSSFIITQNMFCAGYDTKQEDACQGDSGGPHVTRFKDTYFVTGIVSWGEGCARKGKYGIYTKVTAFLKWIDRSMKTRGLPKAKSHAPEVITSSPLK
T7 sequence (P00742 41-179 partner limits assumed): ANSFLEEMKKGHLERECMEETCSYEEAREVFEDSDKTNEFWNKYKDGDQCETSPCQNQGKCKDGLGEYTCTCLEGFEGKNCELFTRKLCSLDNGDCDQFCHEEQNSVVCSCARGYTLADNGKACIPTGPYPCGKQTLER
T3 sequence (P03952 391-638 limits assumed): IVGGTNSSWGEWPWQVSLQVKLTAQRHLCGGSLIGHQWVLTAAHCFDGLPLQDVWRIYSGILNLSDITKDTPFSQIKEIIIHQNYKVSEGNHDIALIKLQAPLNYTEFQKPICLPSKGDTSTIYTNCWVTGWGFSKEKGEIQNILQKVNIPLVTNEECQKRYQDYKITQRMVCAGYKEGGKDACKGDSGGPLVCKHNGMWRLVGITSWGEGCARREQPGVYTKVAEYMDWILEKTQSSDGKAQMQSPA
T3 sequence (P03952 20-390 partner limits assumed): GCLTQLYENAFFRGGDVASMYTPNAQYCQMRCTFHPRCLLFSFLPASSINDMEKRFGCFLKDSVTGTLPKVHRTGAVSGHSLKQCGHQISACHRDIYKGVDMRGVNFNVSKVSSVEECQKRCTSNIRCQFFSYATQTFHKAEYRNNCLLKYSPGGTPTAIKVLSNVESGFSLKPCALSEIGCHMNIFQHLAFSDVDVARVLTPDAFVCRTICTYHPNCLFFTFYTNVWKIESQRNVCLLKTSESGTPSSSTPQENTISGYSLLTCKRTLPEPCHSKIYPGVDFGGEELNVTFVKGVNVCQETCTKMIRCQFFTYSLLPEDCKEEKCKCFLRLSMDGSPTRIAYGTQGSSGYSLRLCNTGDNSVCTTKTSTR
T5 sequence (P00751 260-764 limits assumed): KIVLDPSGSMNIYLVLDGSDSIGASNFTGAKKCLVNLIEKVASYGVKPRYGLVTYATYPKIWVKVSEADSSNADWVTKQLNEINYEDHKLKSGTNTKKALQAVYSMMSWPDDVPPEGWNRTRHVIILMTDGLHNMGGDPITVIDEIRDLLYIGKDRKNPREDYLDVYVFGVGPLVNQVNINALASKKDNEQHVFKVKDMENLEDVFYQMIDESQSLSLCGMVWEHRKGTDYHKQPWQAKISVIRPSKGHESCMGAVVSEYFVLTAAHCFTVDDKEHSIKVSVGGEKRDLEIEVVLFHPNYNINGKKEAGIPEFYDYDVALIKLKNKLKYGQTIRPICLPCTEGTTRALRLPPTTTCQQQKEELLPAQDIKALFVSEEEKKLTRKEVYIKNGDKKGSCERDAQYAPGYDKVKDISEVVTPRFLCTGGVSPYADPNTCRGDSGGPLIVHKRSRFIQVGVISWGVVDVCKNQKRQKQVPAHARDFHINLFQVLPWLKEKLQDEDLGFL

Row | kinact/KI (bovine thrombin; [3]) | kinact/KI (human plasma kallikrein; [6]) | Compound | kinact/KI (Cl^- r) | kinact/KI (human plasma kallikrein; [4]) | kinact/KI (bovine trypsin; [5]) | kinact/KI (Bb) | kinact/KI (cathepsin G; Table IV, [I] 0.002 to 0.35 mM) | half-life [1] | half-life [2] | kinact/KI (human factor Xa; Table I, [I] 5 to 105 μM) | also measured
1 |  |  | O=c1oc(Cl)c(Cl)c2ccccc12 [3,4-dichloroisocoumarin, reference compound] | 42 M⁻¹ s⁻¹ |  |  |  |  |  |  |  | 
2 | 350 M⁻¹ s⁻¹ | 1400 M⁻¹ s⁻¹ | NCCCOc1oc(=O)c2ccccc2c1Cl [3-(3-aminopropoxy)-4-chloroisocoumarin] |  |  | 7600 M⁻¹ s⁻¹ |  | 260 M⁻¹ s⁻¹ | 123 min |  |  | 
3 | 630 M⁻¹ s⁻¹ | 1100 M⁻¹ s⁻¹ | N=C(N)SCCCOc1oc(=O)c2cc(N)ccc2c1Cl [7-amino-4-chloro-3-(3-isothiureidopropoxy)isocoumarin] | 1320 M⁻¹ s⁻¹ |  |  |  | 36 M⁻¹ s⁻¹ |  | 165 min | 60 M⁻¹ s⁻¹ | kinact/KI (bovine trypsin; [7]): 410000 M⁻¹ s⁻¹; t1/2 for spontaneous hydrolysis [1]: 90 min; stability in human plasma (in words) [2]: fairly stable
4 |  |  | CCOc1oc(=O)c2cc(NC(=N)N)ccc2c1Cl [7-guanidino-3-ethoxy-4-chloroisocoumarin, 7-guanidino-4-chloro-3-ethoxyisocoumarin] | 239 M⁻¹ s⁻¹ | > 500000 M⁻¹ s⁻¹ |  | 95 M⁻¹ s⁻¹ | 84000 M⁻¹ s⁻¹ | 39 min | 8.2 min | 11000 M⁻¹ s⁻¹ | kinact/KI (bovine thrombin; [8]): > 55000 M⁻¹ s⁻¹; kinact/KI (bovine trypsin; [8]): > 110000 M⁻¹ s⁻¹
5 | 4900 M⁻¹ s⁻¹ | 13000 M⁻¹ s⁻¹ | COc1cc2ccc(NC(=N)N)cc2c(=O)o1 [7-guanidino-3-methoxyisocoumarin] |  |  | 3300 M⁻¹ s⁻¹ |  |  | 252 min |  |  | inhibition at 490 µM (cathepsin G; Table IV, not time dependent, at 0.49 mM): 81%
6 |  |  | N=C(N)Nc1ccc2c(Cl)c(OCCc3ccccc3)oc(=O)c2c1 [7-guanidino-4-chloro-3-(2-phenylethoxy)isocoumarin] | 342 M⁻¹ s⁻¹ | > 270000 M⁻¹ s⁻¹ |  | 58 M⁻¹ s⁻¹ | 66000 M⁻¹ s⁻¹ | 36 min | 4.5 min | 11000 M⁻¹ s⁻¹ | kinact/KI (bovine thrombin; [8]): > 30000 M⁻¹ s⁻¹; kinact/KI (bovine trypsin; [8]): > 110000 M⁻¹ s⁻¹
7 |  |  | COc1oc(=O)c2cc(NC(=N)N)ccc2c1Cl [7-guanidino-4-chloro-3-methoxyisocoumarin] | 75 M⁻¹ s⁻¹ |  |  | 74 M⁻¹ s⁻¹ | 11000 M⁻¹ s⁻¹ | 44 min | 6.7 min | 11000 M⁻¹ s⁻¹ | kinact/KI (bovine thrombin; [7]): 290000 M⁻¹ s⁻¹; kinact/KI (human plasma kallikrein; pH 7.5, progress curve method): 240000 M⁻¹ s⁻¹; kinact/KI (bovine trypsin; [7]): 310000 M⁻¹ s⁻¹
8 |  |  | N=C(N)SCCOc1oc(=O)c2cc(NC(=O)Nc3ccccc3)ccc2c1Cl [PhNHCONH-CiTEtOIC, 7-(phenylcarbamoylamino)-4-chloro-3-(2-isothiureidoethoxy)isocoumarin] |  |  |  |  |  |  |  |  | kinact/KI (bovine thrombin; Table VIII, pH 7.5, 25° C, [I] 1.2-54 μM): 25000 M⁻¹ s⁻¹; kinact/KI (human factor Xa; Table VIII, [I] 3.6-44 μM): 4740 M⁻¹ s⁻¹; kinact/KI (bovine trypsin; Table VIII, pH 7.5, 25° C, [I] 1.1-4.6 μM): 21000 M⁻¹ s⁻¹; kinact/KI (cathepsin G; Table X, [I] 33-46 μM): 100 M⁻¹ s⁻¹; t1/2 for spontaneous hydrolysis [1]: 108 min

Row | Compound | kinact/KI (bovine thrombin; [3]) | kinact/KI (human plasma kallikrein; [6]) | kinact/KI (Cl^- r) | kinact/KI (human plasma kallikrein; [4]) | kinact/KI (bovine trypsin; [5]) | kinact/KI (Bb) | kinact/KI (cathepsin G; Table IV, [I] 0.002 to 0.35 mM) | half-life [1] | half-life [2] | kinact/KI (human factor Xa; Table I, [I] 5 to 105 μM) | also measured
9 | N=C(N)SCCOc1oc(=O)c2ccccc2c1Cl [3-(2-isothiureidoethoxy)-4-chloroisocoumarin] | 4700 M⁻¹ s⁻¹ |  |  | 280000 M⁻¹ s⁻¹ | 32000 M⁻¹ s⁻¹ | 15 M⁻¹ s⁻¹ | 110 M⁻¹ s⁻¹ | 83 min |  |  | 
10 | N=C(N)SCCCOc1oc(=O)c2ccccc2c1Cl [3-(3-isothiureidopropoxy)-4-chloroisocoumarin] | 1430 M⁻¹ s⁻¹ |  | 6610 M⁻¹ s⁻¹ | > 110000 M⁻¹ s⁻¹ | 46000 M⁻¹ s⁻¹ | 0.8 M⁻¹ s⁻¹ | 83 M⁻¹ s⁻¹ | 99 min | 0.5 min |  | 

Reference: US5324648A, “Substituted isocoumarins as serine protease inhibitors and anti-inflammatory agents” (Georgia Tech Research Corporation, priority 1992, dated 1994)
